Experiments:
[1] = tested on: C. pipiens F1 (SR×Slab) heterozygous larvae; assay: Larval bioassay, heterozygous F1 (SR×Slab); format: in vivo, Culex pipiens; conditions: C. pipiens heterozygous ace-1 R/ace-1 S larvae
From the text: (§1) Three C. pipiens strains were used: the susceptible reference Slab strain, homozygous for ace-1 ^S [39], the resistant reference SR strain, carrying the genetical background of Slab but homozygous for the G119S mutation, allele ace-1 ^R [21] and the Ducos strain, carrying the genetical background of Slab but homozygous for an ace-1 duplication, with one ace-1^S and ace-1^R copy in tandem. Culex pipiens heterozygous larvae (Slab×SR) were obtained by crossing Slab males and SR females. Two A. gambiae reference strains (S molecular form) were used: the susceptible strain Kisumu, homozygous for ace-1 ^S, collected in Kenya in 1953 and maintained since then under laboratory conditions and the resistant Acerkis strain, carrying the genetical background of Kisumu but homozygous for an ace-1^R allele from a population collected in Bobo-Dioulasso, Burkina Faso [41].
(§2) Insecticidal activity was determined by performing bioassays on fourth-instar larvae as described in [42]. Each compound was dissolved in ethanol. Propoxur (CX) and chlorpyrifos (OP) were used as references. For each compound, we first tested mortality after a 24-hour exposure at 300 µM. […] Mortality data were analyzed by the log-probit program. This program takes into account natural mortality and provides lethal doses (LD) and slopes for each mortality line; it also computes resistance ratios (RR) for each LD, with 95% confidence intervals.

[2] = tested on: A. gambiae Kisumu strain larvae; assay: Larval bioassay, Kisumu strain (OP-susceptible); format: in vivo, Anopheles gambiae; conditions: A. gambiae OP-susceptible ace-1 S/S larvae
From the text: as §1, §2

[3] = tested on: C. pipiens SR strain larvae; assay: Larval bioassay, SR strain (OP-resistant); conditions: for LD50 SR: C. pipiens OP-resistant ace-1 R/R larvae; for Mortality at 300 µM, SR: fourth-instar larvae, 24 hours exposure
From the text: Three C. pipiens strains were used: the susceptible reference Slab strain, homozygous for ace-1 ^S [39], the resistant reference SR strain, carrying the genetical background of Slab but homozygous for the G119S mutation, allele ace-1 ^R [21] and the Ducos strain, carrying the genetical background of Slab but homozygous for an ace-1 duplication, with one ace-1^S and ace-1^R copy in tandem. Culex pipiens heterozygous larvae (Slab×SR) were obtained by crossing Slab males and SR females.
Insecticidal activity was determined by performing bioassays on fourth-instar larvae as described in [42]. Each compound was dissolved in ethanol. Propoxur (CX) and chlorpyrifos (OP) were used as references. For each compound, we first tested mortality after a 24-hour exposure at 300 µM. […] Mortality data were analyzed by the log-probit program.

[4] = tested on: C. pipiens Slab strain larvae; assay: Larval bioassay, Slab strain (OP-susceptible); conditions: for LD50 Slab: C. pipiens OP-susceptible ace-1 S/S larvae, four to five replicates; for Mortality at 300 µM, Slab: fourth-instar larvae, 24 hours exposure
From the text: as §1, §2

[5] = tested on: A. gambiae Acerkis strain larvae; assay: Larval bioassay, Acerkis strain (OP-resistant); format: in vivo, Anopheles gambiae; conditions: A. gambiae OP-resistant ace-1 R/R larvae
From the text: as §1, §2

[6] = tested on: C. pipiens Ducos strain larvae; assay: Larval bioassay, Ducos strain (ace-1 duplication); format: in vivo, Culex pipiens; conditions: C. pipiens OP-resistant ace-1 D (duplication) larvae
From the text: as §1, §2

F290V AChE1 = target: T1, F290V AChE1 (Culex pipiens, UniProt Q86GC8, F416V); format: biochemical; conditions: F290V OP-insensitive AChE1
T1 construct: made in house; host or cells: Drosophila S2 cells
Description: (§3) Production of C. pipiens WT and mutated AChE1s in Drosophila S2 cells was already described. The chemical library (ChemBridge, 3,000 compounds) screening was performed in duplicate on G119S recombinant AChE1. Chemicals were made soluble in ethanol or dimethylsulphoxide (DMSO), and then diluted at 300 µM in ethanol for storage. Compounds (30 µM final concentration) were incubated for 15 min at room temperature with 100 µl of G119S recombinant AChE1 then 100 µl of substrate (acetylthiocholine, 1.6 mM, Sigma-Aldrich) was added and the residual activity was quantified by measuring the optical density at 412 nm, as described by Ellman et al.. PTF analogs were analyzed in dose-response experiments (10-fold serial dilutions from 3 mM to 30 nM), using recombinant WT and G119S AChE1 or mosquito head extracts (heads cut from frozen mosquitoes, homogenized in 400 µl PB containing 1% Triton X-100 and cleared by centrifugation at 9,000×g for 3 min). Depending on compound availability, two to five replicates were performed with distinct batches of enzyme. […] IC50 was estimated by nonlinear least square regression. IC50 was also measured on AChE1 from susceptible and resistant mosquito larvae extracts.
(§4) a numbers refer to Table S1
(§5) b IC50 values were determined from regression analysis of log-concentrations versus

F331W AChE1 = target: T2, F331W AChE1 (Culex pipiens, UniProt Q86GC8, F457W); format: biochemical; conditions: F331W OP-insensitive AChE1
T2 construct: made in house; host or cells: Drosophila S2 cells
Description: as §3, §4, §5

WT AChE1 [7] = target: T3, WT AChE1 (Culex pipiens, UniProt Q86GC8); assay: AChE assay (Ellman), dose-response on recombinant WT AChE1; format: biochemical; set-up: made in house; host or cells: Drosophila S2 cells; conditions: recombinant wild-type C. pipiens AChE1; 15 min incubation; acetylthiocholine; read-out: IC50 WT
Description: as §3

G119S AChE1 [8] = target: T4, G119S AChE1 (Culex pipiens, UniProt Q86GC8, G247S); assay: biochemical; format: biochemical; conditions: recombinant OP-insensitive G119S C. pipiens AChE1; 15 min incubation; acetylthiocholine; read-out: IC50 G119S
T4 construct: made in house; host or cells: Drosophila S2 cells
Description: as §3, with “Compounds (30 µM final concentration) were incubated for 15 min at room temperature with 100 µl of G119S recombinant AChE1 then 100 µl of substrate (acetylthiocholine, 1.6 mM, Sigma-Aldrich) was added and the residual activity was quantified by measuring the optical density at 412 nm, as described by Ellman et al..” left out

WT AChE1 [9] = target: T3, WT AChE1; conditions: read-out: Kic WT; dissociation constant of enzyme-inhibitor complex; five independent replicates
Description: (§6) To identify inhibitors of G119S AChE1, we screened a 3,000-compound chemical library using an assay adapted to a microplate format, [26]. […] For simplification, these compounds will be termed from now as PTF (PyrimidineTrione Furan-substituted) and were classified depending on the substituted positions (Table S1).
(§7) WT and G119S recombinant AChE1s were incubated with 0.25 mM, 0.5 mM or 1 mM inhibitor. Residual activity of G119S (A and C) and WT (B and D) AChE1 was measured in the presence of various concentrations of PTF-20 and substrates. Enzymatic activity was analyzed using the graphical method developed by Dixon, representing reciprocal rates (1/v) (A and B) or reciprocal rates multiplied by substrate concentrations ([S]/v) (C and D) as a function of inhibitor concentration. (PDF) Click here for additional data file.
(§8) Table S3. Dissociation constants (Kic) of enzyme-inhibitor complexes.
as §4
(§9) b data were measured from five independent replicates.
(§10) c competitive inhibitor reference

G119S AChE1 [10] = target: T4, G119S AChE1; format: biochemical; conditions: dissociation constant of enzyme-inhibitor complex; five independent replicates; read-out: Kic G119S
Description: as §6
Reversibility was tested using a rapid dilution procedure. Residual activity of WT (white bars) and G119S (grey bars) AChE1 were measured after 15 min incubation in presence of inhibitors (striped bars) and are expressed as percentages of control activity. […] Assays were then diluted ten times and residual activity was measured (open bars). Means and standard errors for three independent experiments are shown. (PDF) Click here for additional data file.
as §7, §8, §4, §9, §10

CCOP(=S)(OCC)Oc1nc(Cl)c(Cl)cc1Cl [Chlorpyrifos, reference compound]
LD50 F1 (SR×Slab) [1]: 0.0015 µM | LD50 Kisumu [2]: 0.00095 µM | LD50 SR [3]: 0.021 µM | LD50 Slab [4]: 0.00019 µM | LD50 Acerkis [5]: 0.6 µM | LD50 Ducos [6]: 0.0022 µM

Cc1ccc(C=C2C(=O)NC(=O)N(c3ccc(Cl)cc3)C2=O)o1 [PTF-20]
IC50 (F290V AChE1): 14.5 µM | IC50 (F331W AChE1): 8.3 µM | IC50 (WT AChE1 [7]): 330 µM | LD50 SR [3]: 194.0 µM | Mortality at 300 µM, SR [3]: 94% | LD50 Slab [4]: 762.0 µM | Mortality at 300 µM, Slab [4]: 43% | IC50 (G119S AChE1 [8]): 27.5 µM | Ki (WT AChE1 [9]): 56.1 ± 1.8 µM | Ki (G119S AChE1 [10]): 5.6 ± 0.1 µM

Cc1ccc(C=C2C(=O)N(C)C(=O)N(C)C2=O)o1 [PTF-39]
LD50 F1 (SR×Slab) [1]: 110.0 µM | IC50 (F290V AChE1): 13.9 µM | IC50 (F331W AChE1): 8.7 µM | IC50 (WT AChE1 [7]): 74.3 µM | LD50 SR [3]: 200.0 µM | Mortality at 300 µM, SR [3]: 81% | LD50 Slab [4]: 576.0 µM | Mortality at 300 µM, Slab [4]: 29% | IC50 (G119S AChE1 [8]): 7.6 µM | Ki (WT AChE1 [9]): 130 ± 9.2 µM | Ki (G119S AChE1 [10]): 41.9 ± 2.3 µM | LD50 Ducos [6]: 201.9 µM

O=C1NC(=O)N(c2ccccc2)C(=O)C1=Cc1ccc(-c2ccccc2C(=O)O)o1 [PTF-59]
IC50 (WT AChE1 [7]): 45.7 µM | Mortality at 300 µM, SR [3]: 0% | Mortality at 300 µM, Slab [4]: 0% | IC50 (G119S AChE1 [8]): 18.5 µM

O=C1NC(=O)N(c2ccccc2)C(=O)C1=Cc1ccc(Sc2ccccc2)o1 [PTF-60]
IC50 (WT AChE1 [7]): 7.7 µM | Mortality at 300 µM, SR [3]: 50% | Mortality at 300 µM, Slab [4]: 50% | IC50 (G119S AChE1 [8]): 1.1 µM

O=C1NC(=O)N(c2ccccc2)C(=O)C1=Cc1ccc(N2CCCCC2)o1 [PTF-61]
IC50 (WT AChE1 [7]): 124 µM | Mortality at 300 µM, SR [3]: 0% | Mortality at 300 µM, Slab [4]: 0% | IC50 (G119S AChE1 [8]): 1500 µM

O=C1NC(=O)N(c2ccccc2)C(=O)C1=Cc1ccc(N2CCOCC2)o1 [PTF-62]
IC50 (WT AChE1 [7]): 197 µM | Mortality at 300 µM, SR [3]: 0% | Mortality at 300 µM, Slab [4]: 0% | IC50 (G119S AChE1 [8]): 345 µM

O=C1NC(=S)N(c2ccccc2)C(=O)C1=Cc1ccco1 [PTF-63]
IC50 (WT AChE1 [7]): 151 µM | Mortality at 300 µM, SR [3]: 0% | Mortality at 300 µM, Slab [4]: 0% | IC50 (G119S AChE1 [8]): 98 µM

N=C1NC(=O)C(=Cc2ccco2)C(=O)N1c1ccccc1 [PTF-64]
IC50 (WT AChE1 [7]): 56 µM | Mortality at 300 µM, SR [3]: 0% | Mortality at 300 µM, Slab [4]: 0% | IC50 (G119S AChE1 [8]): 49.5 µM

CC(C)(C)N=C1NC(=O)C(=Cc2ccco2)C(=O)N1c1ccccc1 [PTF-65]
IC50 (WT AChE1 [7]): 37 µM | Mortality at 300 µM, SR [3]: 0% | Mortality at 300 µM, Slab [4]: 0% | IC50 (G119S AChE1 [8]): 22 µM

C=CCN1C(=O)NC(=O)C(=Cc2ccc(C)s2)C1=O [PTF-66]
IC50 (WT AChE1 [7]): 91.6 µM | Mortality at 300 µM, SR [3]: 100% | Mortality at 300 µM, Slab [4]: 63% | IC50 (G119S AChE1 [8]): 51 µM

O=C1NC(=O)N(c2ccccc2)C(=O)C1=Cc1cccs1 [PTF-67]
IC50 (WT AChE1 [7]): 9.1 µM | Mortality at 300 µM, SR [3]: 0% | Mortality at 300 µM, Slab [4]: 0% | IC50 (G119S AChE1 [8]): 11.2 µM

Cc1ccc(C=C2C(=O)NC(=O)N(c3ccccc3)C2=O)s1 [PTF-68]
IC50 (WT AChE1 [7]): 4 µM | Mortality at 300 µM, SR [3]: 95% | Mortality at 300 µM, Slab [4]: 89% | IC50 (G119S AChE1 [8]): 5 µM

O=C1NC(=O)N(c2ccccc2)C(=O)C1=Cc1ccc(-c2cccc(C(=O)O)c2)s1 [PTF-69]
IC50 (WT AChE1 [7]): 43.9 µM | Mortality at 300 µM, SR [3]: 0% | Mortality at 300 µM, Slab [4]: 0% | IC50 (G119S AChE1 [8]): 4.6 µM

O=C1NC(=O)N(c2ccccc2)C(=O)C1=Cc1ccc(N2CCCCC2)s1 [PTF-70]
IC50 (WT AChE1 [7]): 18 µM | Mortality at 300 µM, SR [3]: 0% | Mortality at 300 µM, Slab [4]: 0% | IC50 (G119S AChE1 [8]): 6.2 µM

O=C1NC(=O)N(c2ccccc2)C(=O)C1=Cc1ccc(N2CCOCC2)s1 [PTF-71]
IC50 (WT AChE1 [7]): 4500 µM | Mortality at 300 µM, SR [3]: 0% | Mortality at 300 µM, Slab [4]: 0% | IC50 (G119S AChE1 [8]): 2480 µM
